Measured values as given in US12281079B2, “Quinoline derivatives, processes for their preparation and uses thereof for the treatment of cancer” (Lead Discovery Center GmbH, priority 2019, dated 2025).

What was measured:
[1] = molecular target: mitochondrial RNA polymerase (POLRMT) (Mus musculus, UniProt Q8BKF1); assay: Homogeneous TR-FRET assay for mitochondrial transcription activity; type: biochemical; details: homogeneous TR-FRET assay according to Example 4
Method in brief: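 Read-out is TR-FRET (ex 340, em 665 nm) from two adjacent labelled DNA probes annealing to the 407 bp transcript after EDTA/700 mM NaCl stop. Reaction: murine POLRMT, TFAM, TFB2M and LSP plasmid template, compound 10 μM or serial dilution, 10 min rt preincubation, 500 μM each nucleotide, 2 h rt.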

[2] = tested on: mitochondrial transcription (7S RNA) in HeLa cells; assay: Quantitative real time-PCR assay of inhibition of mitochondrial transcription (7S RNA) in HeLa cells; type: cell-based; details: Homo sapiens, 4 h compound incubation, according to Example 5, read-out: cellular qPCR assay
Method in brief: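 HeLa cells were exposed to compound dilution series or DMSO for 4 h, then RNA was extracted, normalized and reverse-transcribed. TaqMan qRT-PCR measured short-lived 7S RNA, with POLRMT as nuclear-transcription readout and TBP as housekeeping gene. Biological triplicates were analyzed by ΔΔCt and reported as Rq % (2−ΔΔCt).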

Sequence of mitochondrial RNA polymerase (POLRMT) (Q8BKF1 42-1207): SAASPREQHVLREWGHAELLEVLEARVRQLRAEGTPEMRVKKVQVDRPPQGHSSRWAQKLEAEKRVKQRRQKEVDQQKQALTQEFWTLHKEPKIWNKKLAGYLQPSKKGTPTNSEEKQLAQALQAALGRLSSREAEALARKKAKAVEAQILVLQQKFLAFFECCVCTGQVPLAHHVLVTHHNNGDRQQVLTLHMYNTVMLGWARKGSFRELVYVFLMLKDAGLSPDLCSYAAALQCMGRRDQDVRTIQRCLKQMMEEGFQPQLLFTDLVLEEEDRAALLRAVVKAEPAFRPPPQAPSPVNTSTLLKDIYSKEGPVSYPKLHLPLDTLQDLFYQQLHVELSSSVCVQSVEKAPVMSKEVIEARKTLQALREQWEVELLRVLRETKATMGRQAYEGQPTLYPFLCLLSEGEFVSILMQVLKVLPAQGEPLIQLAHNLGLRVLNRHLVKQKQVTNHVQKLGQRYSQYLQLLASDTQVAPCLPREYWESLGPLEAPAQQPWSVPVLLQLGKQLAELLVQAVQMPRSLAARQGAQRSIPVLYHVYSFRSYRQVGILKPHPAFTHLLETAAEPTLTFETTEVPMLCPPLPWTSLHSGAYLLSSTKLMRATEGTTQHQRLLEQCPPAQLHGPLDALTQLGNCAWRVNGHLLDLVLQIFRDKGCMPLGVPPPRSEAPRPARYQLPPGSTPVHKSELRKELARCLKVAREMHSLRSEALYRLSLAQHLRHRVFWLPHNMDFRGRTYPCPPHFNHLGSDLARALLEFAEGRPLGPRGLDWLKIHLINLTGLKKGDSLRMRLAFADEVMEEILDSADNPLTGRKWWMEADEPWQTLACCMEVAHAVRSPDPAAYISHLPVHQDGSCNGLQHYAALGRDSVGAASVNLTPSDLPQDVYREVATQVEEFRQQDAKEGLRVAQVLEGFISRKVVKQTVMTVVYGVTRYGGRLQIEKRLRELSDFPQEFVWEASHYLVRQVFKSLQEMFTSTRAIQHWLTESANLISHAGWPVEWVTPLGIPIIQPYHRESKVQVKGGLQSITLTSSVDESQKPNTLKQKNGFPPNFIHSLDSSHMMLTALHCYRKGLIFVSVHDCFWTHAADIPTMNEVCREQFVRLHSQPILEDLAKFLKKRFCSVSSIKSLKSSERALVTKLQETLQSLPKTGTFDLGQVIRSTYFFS

Row | Structure (SMILES) | IC50 [1] [nM] | IC50 [2] [nM]
1 | C[C@@H](Oc1ccc2c(-c3ccc(F)cc3Cl)ccnc2c1)C(=O)N1CCCC(C(C)(C)C(=O)O)C1 (stereo partly drawn) [Compound 197, 2-methyl-2-[1-[rac-(2R)-2-[[4-(2-chloro-4-fluoro-phenyl)-7-quinolyl]oxy]propanoyl]-3-piperidyl]propanoic acid] | 20 to 100 | 10 to 50
2 | C[C@@H](Oc1ccc2c(-c3ccc(F)cc3Cl)ccnc2c1)C(=O)N1CCC[C@@](C)(C(=O)O)C1 [Compound 198, (3R)-1-[(2R)-2-[[4-(2-chloro-4-fluoro-phenyl)-7-quinolyl]oxy]propanoyl]-3-methyl-piperidine-3-carboxylic acid] | 20 to 100 | < 10
3 | C[C@@H](Oc1ccc2c(-c3c(Cl)cc(F)cc3Cl)ccnc2c1)C(=O)N1CCCC[C@@H]1C [Compound 199, (2R)-2-[[4-(2,6-dichloro-4-fluoro-phenyl)-7-quinolyl]oxy]-1-[(2S)-2-methyl-1-piperidyl]propan-1-one] | 20 to 100 | < 10
4 | C[C@@H](Oc1ccc2c(-c3c(Cl)cc(F)cc3Cl)ccnc2c1)C(=O)N1CCOCC1 [Compound 201, (2R)-2-[[4-(2,6-dichloro-4-fluoro-phenyl)-7-quinolyl]oxy]-1-morpholino-propan-1-one] | 100 to 1000 | 10 to 50
5 | C[C@@H](Oc1ccc2c(-c3c(Cl)cc(F)cc3Cl)ccnc2c1)C(=O)N1CCC2(CCNC2=O)CC1 [Compound 202, 8-[(2R)-2-[[4-(2,6-dichloro-4-fluoro-phenyl)-7-quinolyl]oxy]propanoyl]-2,8-diazaspiro[4.5]decan-1-one] | 100 to 1000 | 10 to 50
6 | C[C@@H]1CCCCN1C(=O)[C@@H](C)Oc1ccc2c(-c3c(Cl)cc(F)cc3Cl)ccnc2c1 [Compound 204, (2R)-2-[[4-(2,6-dichloro-4-fluoro-phenyl)-7-quinolyl]oxy]-1-[(2R)-2-methyl-1-piperidyl]propan-1-one] | 100 to 1000 | 10 to 50
7 | C[C@@H](Oc1ccc2c(-c3ccc(F)cc3Cl)ccnc2c1)C(=O)N1CCCC(C2(O)CC2)C1 (stereo partly drawn) [Compound 207, (2R)-2-[[4-(2-chloro-4-fluoro-phenyl)-7-quinolyl]oxy]-1-[3-(1-hydroxycyclopropyl)-1-piperidyl]propan-1-one] | 100 to 1000 | < 10
8 | C[C@@H](Oc1ccc2c(-c3c(Cl)cc(F)cc3Cl)ccnc2c1)C(=O)N1CCC2(CC1)COC2 [Compound 208, (2R)-2-[[4-(2,6-dichloro-4-fluoro-phenyl)-7-quinolyl]oxy]-1-(2-oxa-7-azaspiro[3.5]nonan-7-yl)propan-1-one] | 100 to 1000 | 10 to 50
9 | CC(=O)N(O)[C@H]1CCCN(C(=O)[C@@H](C)Oc2ccc3c(-c4ccc(F)cc4Cl)ccnc3c2)C1 [Compound 209, N-hydroxy-N-[(3S)-1-[(2R)-2-[[4-(2-chloro-4-fluoro-phenyl)-7-quinolyl]oxy]propanoyl]-3-piperidyl]acetamide] | 100 to 1000 | 10 to 50
10 | C[C@@H](Oc1ccc2c(-c3ccc(F)cc3Cl)ccnc2c1)C(=O)N1CCC2(COC2)C1 [Compound 213, (2R)-2-[[4-(2-chloro-4-fluoro-phenyl)-7-quinolyl]oxy]-1-(2-oxa-7-azaspiro[3.4]octan-7-yl)propan-1-one] | 100 to 1000 | 50 to 500
11 | CC1CN(C(=O)[C@@H](C)Oc2ccc3c(-c4ccc(F)cc4Cl)ccnc3c2)CC(C)N1 (stereo partly drawn) [Compound 216, (2R)-2-[[4-(2-chloro-4-fluoro-phenyl)-7-quinolyl]oxy]-1-(3,5-dimethylpiperazin-1-yl)propan-1-one] | 100 to 1000 | 50 to 500
12 | C[C@@H](Oc1ccc2c(-c3ccc(F)cc3Cl)ccnc2c1)C(=O)N1CCC=C(C(=O)O)C1 [Compound 219, 1-[(2R)-2-[[4-(2-chloro-4-fluoro-phenyl)-7-quinolyl]oxy]propanoyl]-3,6-dihydro-2H-pyridine-5-carboxylic acid] | 20 to 100 | 50 to 500
13 | C[C@@H](Oc1ccc2c(-c3c(Cl)cc(F)cc3Cl)ccnc2n1)C(=O)N1CCC[C@H](CC(=O)O)C1 [Compound 220, 2-[(3R)-1-[(2R)-2-[[5-(2,6-dichloro-4-fluoro-phenyl)-1,8-naphthyridin-2-yl]oxy]propanoyl]-3-piperidyl]acetic acid] | 20 to 100 | < 10
14 | Cc1cc(F)cc(C)c1-c1ccnc2nc(O[C@H](C)C(=O)N3CCC[C@H](CC(=O)O)C3)ccc12 [Compound 221, 2-[(3R)-1-[(2R)-2-[[5-(4-fluoro-2,6-dimethyl-phenyl)-1,8-naphthyridin-2-yl]oxy]propanoyl]-3-piperidyl]acetic acid] | < 20 | < 10

Now from value to compound:

Row | IC50 [1] [nM] | IC50 [2] [nM] | Structure (SMILES)
15 | < 20 | < 10 | C[C@@H](Oc1ccc2c(-c3ccc(F)cc3Cl)ccnc2c1)C(=O)N1CCC[C@](C)(C(=O)O)C1 [Compound 189, (3S)-1-[(2R)-2-[[4-(2-chloro-4-fluoro-phenyl)-7-quinolyl]oxy]propanoyl]-3-methyl-piperidine-3-carboxylic acid]
16 | 20 to 100 | < 10 | C[C@@H](Oc1ccc2c(-c3c(Cl)cc(F)cc3Cl)ccnc2c1)C(=O)N1CCC[C@H](CC(=O)O)C1 [Compound 192, 2-[(3R)-1-[(2R)-2-[[4-(2,6-dichloro-4-fluoro-phenyl)-7-quinolyl]oxy]propanoyl]-3-piperidyl]acetic acid]
17 | 20 to 100 | 10 to 50 | C[C@@H](Oc1ccc2c(-c3ccc(F)cc3Cl)ccnc2c1)C(=O)N1CCCC2(CC2C(=O)O)C1 (stereo partly drawn) [Compound 193, 5-[rac-(2R)-2-[[4-(2-chloro-4-fluoro-phenyl)-7-quinolyl]oxy]propanoyl]-5-azaspiro[2.5]octane-2-carboxylic acid]
18 | 20 to 100 | 10 to 50 | C[C@@H](Oc1ccc2c(-c3c(Cl)cc(F)cc3Cl)ccnc2c1)C(=O)N1CCCC(C(C)(C)C(=O)O)C1 (stereo partly drawn) [Compound 195, 2-methyl-2-[1-[rac-(2R)-2-[[4-(2,6-dichloro-4-fluoro-phenyl)-7-quinolyl]oxy]propanoyl]-3-piperidyl]propanoic acid]
19 | 100 to 1000 | 10 to 50 | C[C@@H](Oc1ccc2c(-c3ccc(F)cc3Cl)ccnc2c1)C(=O)N1CCC2(CCNC2=O)CC1 [Compound 205, 8-[(2R)-2-[[4-(2-chloro-4-fluoro-phenyl)-7-quinolyl]oxy]propanoyl]-2,8-diazaspiro[4.5]decan-1-one]
20 | 100 to 1000 | 10 to 50 | C[C@@H](Oc1ccc2c(-c3ccc(F)cc3Cl)ccnc2c1)C(=O)N1CCOCC1 [Compound 206, (2R)-2-[[4-(2-chloro-4-fluoro-phenyl)-7-quinolyl]oxy]-1-morpholino-propan-1-one]
21 | 100 to 1000 | 10 to 50 | C[C@@H](Oc1ccc2c(-c3ccc(F)cc3Cl)ccnc2c1)C(=O)N1CCC2(CC1)COC2 [Compound 210, (2R)-2-[[4-(2-chloro-4-fluoro-phenyl)-7-quinolyl]oxy]-1-(2-oxa-7-azaspiro[3.5]nonan-7-yl)propan-1-one]
22 | 100 to 1000 | 10 to 50 | CC1CCCC(C)N1C(=O)[C@@H](C)Oc1ccc2c(-c3ccc(F)cc3Cl)ccnc2c1 (stereo partly drawn) [Compound 211, (2R)-2-[[4-(2-chloro-4-fluoro-phenyl)-7-quinolyl]oxy]-1-(2,6-dimethyl-1-piperidyl)propan-1-one]
23 | 100 to 1000 | < 10 | C[C@@H](Oc1ccc2c(-c3ccc(F)cc3Cl)ccnc2c1)C(=O)N1CCCC2(COC2)C1 [Compound 212, (2R)-2-[[4-(2-chloro-4-fluoro-phenyl)-7-quinolyl]oxy]-1-(2-oxa-8-azaspiro[3.5]nonan-8-yl)propan-1-one]
24 | 100 to 1000 | 50 to 500 | C[C@@H](Oc1ccc2c(-c3ccc(F)cc3Cl)ccnc2c1)C(=O)N1CC[C@@H](NC(=O)NC(C)(C)C)C1 [Compound 214, 1-tertbutyl-3-[(3R)-1-[(2R)-2-[[4-(2-chloro-4-fluoro-phenyl)-7-quinolyl]oxy]propanoyl]pyrrolidin-3-yl]urea]
25 | 100 to 1000 | 50 to 500 | C[C@@H](Oc1ccc2c(-c3ccc(F)cc3Cl)ccnc2c1)C(=O)N1CC(C)(C)NC(C)(C)C1 [Compound 215, (2R)-2-[[4-(2-chloro-4-fluoro-phenyl)-7-quinolyl]oxy]-1-(3,3,5,5-tetramethylpiperazin-1-yl)propan-1-one]
